Key:
PC12 cells = test: Effect of extracellular APP on zinc uptake by PC12 cells; format: cell-based; conditions: 10 nM APP, within an hour (=4% in the absence of APP)
Procedure: 10^6 PC12 cells were plated for 24 hr in the presence of Dulbecco's modified Eagle's medium (DMEM, N2) supplemented with 8% fetal calf serum (FCS). The medium was then removed and replaced with DMEM with no FCS and incubated for a further 24 hr. The cells were then washed (×2 with DMEM) and incubated with DMEM supplemented with 10 nM 130/110 kDa purified brain membrane-associated APP carrying 20 000 CPM ^65Zn prepared as in FIG. 1 above. Following varying periods of incubation, the cells were harvested, washed, exposed to Pronase digestion to remove surface proteins and then lysed in scintillant and assayed in a beta-counter.

APP-degrading protease = test: Assay of APP-degrading protease (Zn^2+-enhanced degradation of plasma 130 kDa APP); format: biochemical, human; conditions: plasma APP from heparin-Sepharose eluates, 37° C.
[1] = biological target: T1, APP purified from rat brain (Rattus norvegicus, UniProt P08592); test: heparin binding to APP in a Biosensor system; conditions: summary statement, 'may increase'
T1 construct: from tissue; host or cells: rat brain
Procedure: The effect of Zn^2+ in modulating heparin binding to APP was also studied in a Biosensor system. […] This effect was most pronounced and most specific for Zn^2+, as opposed to the absence of divalent cations or the presence of Ca^2+, Mg^2+ or Co^2+, and was most evident when the heparin:APP ratio was low. […] Zn^2+ at 50 nM promoted a =170% increase in heparin binding, the effect saturating at 70 μM.

[2] = test system: human brain membrane-derived APP; test: trypsin digestion of human brain membrane-derived APP, Western blot with 22C11; format: biochemical; conditions: summary statement
Source text: The proteolytic activity of trypsin (Boehringer, Mannheim) was studied to determine whether it was modulated by a range of doses of heparin (Sigma) and ZnCl2. […] Western blots for APP using the APP binding monoclonal antibody 22C11 were used to monitor the progression of the proteolytic reaction and to detect breakdown products.

plasma APP = test: Effect of zinc loading upon human plasma APP; format: in vivo
Procedure: (§1) 100 mg elemental zinc (as sulphate, in capsules) was given orally to two individuals with Alzheimer's disease (NINCDS/ADRDC criteria with abnormal plasma APP profiles) and two age-matched controls (with normal plasma APP profiles). Zinc was continued for 7 days and morning fasting bloods collected before the commencement of zinc supplements and three weeks after ceasing the supplement. Western blots with monoclonal antibody 22C11 were carried out on 65 μg of plasma heparin-Sepharose eluate purified from the samples in the manner previously described. The results indicated an increase of 130 kDa species plasma APP relative to the other species present, in other words a shift towards the profile of APP species that is characteristic of Alzheimer's disease. The two control plasma APP profiles came to resemble Alzheimer's disease profiles, and the two Alzheimer's profiles worsened. The proportional increase in the 130 kDa species was approximately 20% per day of zinc supplementation.

[3] = Administration of zinc in Alzheimer's disease: neurological response; format: in vivo, human
Procedure: as §1
The subjects from Example 3 were studied.
The two AD volunteers because acutely unwell while on zinc supplementation. […] Eye movement abnormalities and general levels of self care worsened over the period of supplementation. This response was consistent with a neurotoxic response to the zinc supplementation.

T1 sequence (P08592 18-770): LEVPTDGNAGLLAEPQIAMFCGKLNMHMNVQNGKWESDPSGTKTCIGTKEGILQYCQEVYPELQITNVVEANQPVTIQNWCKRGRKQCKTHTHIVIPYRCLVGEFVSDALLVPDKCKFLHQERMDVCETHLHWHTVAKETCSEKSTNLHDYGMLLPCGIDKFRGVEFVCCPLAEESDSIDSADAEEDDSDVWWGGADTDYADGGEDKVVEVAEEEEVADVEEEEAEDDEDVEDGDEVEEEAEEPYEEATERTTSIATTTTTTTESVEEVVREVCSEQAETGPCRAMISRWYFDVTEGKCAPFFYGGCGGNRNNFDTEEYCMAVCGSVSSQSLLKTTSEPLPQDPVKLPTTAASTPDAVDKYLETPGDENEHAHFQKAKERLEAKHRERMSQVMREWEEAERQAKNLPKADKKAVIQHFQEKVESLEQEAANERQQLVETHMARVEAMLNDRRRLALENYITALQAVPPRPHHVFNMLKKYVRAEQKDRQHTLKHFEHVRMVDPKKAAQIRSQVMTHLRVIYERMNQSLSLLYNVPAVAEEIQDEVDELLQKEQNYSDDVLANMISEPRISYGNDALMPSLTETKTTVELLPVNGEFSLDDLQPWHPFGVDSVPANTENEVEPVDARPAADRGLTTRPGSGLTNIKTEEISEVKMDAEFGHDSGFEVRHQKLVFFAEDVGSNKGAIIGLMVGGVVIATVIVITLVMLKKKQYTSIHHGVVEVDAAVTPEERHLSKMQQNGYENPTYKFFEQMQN

Row | Compound | ^65Zn counts internalized (PC12 cells) [%] | zinc concentration required to stimulate proteolysis (APP-degrading protease) [μm] | increase of APP affinity for heparin [1] [fold] | zinc concentration at which the protective effects of heparin are abolished [2] | proportional increase in the 130 kDa species of plasma APP (plasma APP; 100 mg elemental zinc orally for 7 days, AD and age-matched controls) | persistence of changes in plasma APP profile (plasma APP; elderly control, four-fold higher dose over three days) | return of cognitive function to previous levels after ceasing supplementation ([3]; AD volunteers) | eye movement abnormalities and general levels of self care ([3]; AD volunteers, over the period of supplementation) | mini-mental state examination scores ([3]; Alzheimer's disease volunteers on oral zinc supplementation) | ill effects in healthy volunteers ([3]; healthy volunteers on zinc supplementation)
1 | APP: 130/110 kDa purified brain membrane-associated amyloid precursor protein carrying ^65Zn | 10 |  |  |  |  |  |  |  |  | 
2 | [Zn] [zinc] |  | 20 | 5 to 10 | above 1 μm | approximately 20 % per day | persisted for three days after ceasing supplementation | within two weeks | worsened | deteriorating from moderately demented levels to unrecordable | no ill effects

Source: patent publication US20040265847A1, “Method for treating Alzheimer's disease” (priority 1991, published 2004)
